This is an account of results in patent US5401734A, “Cephem compounds” (Fujisawa Phamaceutical Co., Ltd., priority 1988, dated 1995).

In brackets after ≈: the same amount, converted by molar mass. Where only a bound is given, the exact number is not on record here.

The test system of this test is P. aeruginosa 26. Put plainly: In vitro antibacterial activity, MIC by the two-fold agar-plate dilution method. The test is classed as cell-based. Particulars: Pseudomonas aeruginosa, heart infusion agar, 37° C., 20 hours, overnight culture 10^8 viable cells per ml, read-out: MIC (minimal inhibitory concentration). As to the method:
Now in order to show the utility of the object compound (I), the test data on MIC (minimal inhibitory concentration) of representative compound of this invention are shown in the following.
In vitro antibacterial activity was determined by the two-fold agar-plate dilution method as described below.
One loopful of an overnight culture of each test strain in Trypticase-soy broth (10^8 viable cells per ml) was streaked on heart infusion agar (HI-agar)containing graded concentrations of representative test compound, and the minimal inhibitory concentration (MIC) was expressed in terms of μg/ml after incubation at 37° C. for 20 hours.

As to `CC(C)(O/N=C(\C(=O)N[C@@H]1C(=O)N2C(C(=O)[O-])=C(C[N+](C)(C)Cc3cc(=O)c(O)c[nH]3)CS[C@H]12)c1nsc(N)n1)C(=O)O` [Test compound (1), 7β-[2-(5-Amino-1,2,4-thiadiazol-3-yl)-2-(1-carboxy-1-methylethoxyimino)acetamido]-3-[N,N-dimethyl-N-{(5-hydroxy-4-oxo-1,4-dihydropyridin-2-yl)methyl}ammonio]methyl-3-cephem-4-carboxylate (syn isomer)], the MIC was at most 0.025 µg/mL.

Turning to `CO/N=C(\C(=O)N[C@@H]1C(=O)N2C(C(=O)[O-])=C(C[N+]3(C)CCN(C(=O)c4cc(O)c(O)cn4)CC3)CS[C@H]12)c1nsc(N)n1` [Test compound (2), 7β-[2-(5-Amino-1,2,4-thiadiazol-3-yl)-2-methoxyiminoacetamido]-3-[1-methyl-4-(4,5-dihydroxy-2-pyridylcarbonyl)-1-piperazinio]methyl-3-cephem-4-carboxylate (syn isomer)], the MIC is 0.05 µg/mL (≈ 0.0789 µM).
